Consider 16 compounds from ChEMBL document CHEMBL1130744, “Potent and selective inhibitors of the proteasome: dipeptidyl boronic acids” (Bioorg Med Chem Lett, 1998).

Structures are written as SMILES. Non-standard residues stand in square brackets, D forms with d. Residues, ends and D or L forms follow the SMILES beside them. *: point of attachment. 1Nal = N[C@@H](Cc1cccc2ccccc12)C(=O)O; 2Nal = N[C@@H](Cc1ccc2ccccc2c1)C(=O)O; Cbz = O=C(OCc1ccccc1)*; CF3 = FC(F)(F)*; CH2Cl = ClC*

Assay [1] concerns the target Proteasome. Nature of the assay: Inhibitory activity against 20S Proteasome. Type of assay: subcellular, Oryctolagus cuniculus.
The target of assay [2] is Cathepsin B (Homo sapiens, UniProt P07858). Put plainly: Inhibitory activity against Cathepsin B.
Assay [3] addresses T1, Cathepsin G (Homo sapiens, UniProt P08311).
T1 sequence (P08311 whole entry): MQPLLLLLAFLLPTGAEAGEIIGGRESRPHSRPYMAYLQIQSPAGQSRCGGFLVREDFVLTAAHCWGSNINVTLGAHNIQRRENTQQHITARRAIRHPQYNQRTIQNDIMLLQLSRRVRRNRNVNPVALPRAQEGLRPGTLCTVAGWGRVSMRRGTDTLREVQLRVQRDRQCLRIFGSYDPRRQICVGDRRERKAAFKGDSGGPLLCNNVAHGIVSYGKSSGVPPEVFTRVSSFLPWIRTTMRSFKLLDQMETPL
Put plainly: Inhibitory activity against human cathepsin G.

For assay [4], the target named is T2, Neutrophil elastase (Homo sapiens, UniProt P08246).
T2 sequence (P08246 whole entry): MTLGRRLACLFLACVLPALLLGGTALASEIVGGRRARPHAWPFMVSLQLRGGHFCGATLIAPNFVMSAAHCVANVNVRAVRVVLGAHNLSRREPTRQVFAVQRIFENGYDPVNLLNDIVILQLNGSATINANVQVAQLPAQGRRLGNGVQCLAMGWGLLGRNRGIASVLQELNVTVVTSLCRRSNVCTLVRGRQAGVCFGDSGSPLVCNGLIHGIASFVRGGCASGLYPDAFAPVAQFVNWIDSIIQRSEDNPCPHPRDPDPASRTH
Nature of the assay: Inhibitory activity against human leukocyte elastase.

Assay [5] concerns the target Prothrombin (Homo sapiens, UniProt P00734). Put plainly: Inhibitory activity against thrombin.
Assay [6] deals with Chymotrypsinogen B (Homo sapiens, UniProt P17538). Put plainly: Inhibitory activity against human Chymotrypsinogen.
Sequence of Chymotrypsinogen B (P17538 34-164 limits assumed, other chains not shown): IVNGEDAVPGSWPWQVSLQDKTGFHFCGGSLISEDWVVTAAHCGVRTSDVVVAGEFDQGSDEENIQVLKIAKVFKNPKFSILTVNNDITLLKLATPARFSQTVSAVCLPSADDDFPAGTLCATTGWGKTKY
Sequence of Chymotrypsinogen B (P17538 167-263 limits assumed, other chains not shown): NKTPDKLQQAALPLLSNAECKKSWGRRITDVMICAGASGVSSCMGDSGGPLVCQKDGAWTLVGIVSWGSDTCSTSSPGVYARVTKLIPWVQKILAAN

One may read the Ki as a dissociation constant, usually derived from enzyme kinetics or from competition with a known ligand. A low value points to higher affinity. In assay [1], `CCOC(=O)C(=O)C(=O)[C@H](CC(C)C)NC(=O)[C@H](CC(C)C)NC(=O)[C@H](CC(C)C)NC(=O)OCc1ccccc1` yielded a Ki of 45 nM. Regarding `CC(C)C[C@H](NC(=O)[C@H](CC(C)C)NC(=O)[C@H](CC(C)C)NC(=O)OCc1ccccc1)B(O)O`, the Ki in assay [2] turned out to be 6.1 nM.

Turning to `CC(C)C[C@@H](C=O)NC(=O)[C@H](Cc1ccccc1)NC(=O)c1cnccn1`, affinity in assay [1] was put at a Ki of 1600 nM. The same measure, in the same setting: the same measure for `CC(C)C[C@H](NC(=O)[C@H](Cc1cccc2ccccc12)NC(=O)c1cnccn1)B(O)O`: 0.18 nM; for `CC[C@@H](C)[C@@H](C=O)NC(=O)[C@H](CC(C)C)NC(=O)[C@H](CC(C)C)NC(=O)OCc1ccccc1`: 130 nM; for `CC(C)C[C@H](NC(=O)OCc1ccccc1)C(=O)N[C@@H](CC(C)C)C(=O)N[C@@H](CC(C)C)C(=O)c1nc2ccccc2o1`: 214 nM. Still for that read-out and setting: the same measure for `CC(C)C[C@@H](C=O)NC(=O)[C@H](Cc1cccc2ccccc12)NC(=O)c1cnccn1`: 97 nM; for `CC(C)C[C@H](NC(=O)OCc1ccccc1)C(=O)N[C@@H](CC(C)C)C(=O)N[C@@H](C)C=O` (Cbz-Leu-Leu-Ala-aldehyde): 210 nM. On the same count and under the same terms, then `CC(C)C[C@H](NC(=O)OCc1ccccc1)C(=O)N[C@@H](CC(C)C)C(=O)NCC=O` (Cbz-Leu-Leu-Gly-aldehyde), with 3800 nM; and `CC(C)C[C@H](NC(=O)OCc1ccccc1)C(=O)N[C@@H](CC(C)C)C(=O)N[C@@H](CC(C)C)C(=O)C(F)(F)F` (Cbz-Leu-Leu-Leu-CF3), with 1400 nM. In assay [1], `CC(C)C[C@H](NC(=O)[C@H](CC(C)C)NC(=O)[C@H](CC(C)C)NC(=O)OCc1ccccc1)C(=O)CCl` (Cbz-Leu-Leu-Leu-CH2Cl) registered a Ki of 22000 nM. In turn, `CC(C)C[C@H](NC(=O)OCc1ccccc1)C(=O)N[C@@H](CC(C)C)C(=O)N[C@H](C=O)Cc1ccc2ccccc2c1` (Cbz-Leu-Leu-[2Nal]-aldehyde) returned a Ki in assay [1] of 25 nM. Same read-out and setting: then `CC(C)C[C@@H](C=O)NC(=O)[C@H](CC(C)C)NC(=O)[C@H](Cc1ccc2ccccc2c1)NC(=O)OCc1ccccc1` (Cbz-[2Nal]-Leu-Leu-aldehyde), with 0.24 nM; and `CC(C)C[C@@H](C=O)NC(=O)[C@H](Cc1cccc2ccccc12)NC(=O)[C@H](Cc1ccc2ccccc2c1)NC(=O)OCc1ccccc1` (Cbz-[2Nal]-[1Nal]-Leu-aldehyde), with 0.015 nM. In the case of `CC(C)C[C@H](NC(=O)[C@H](Cc1ccccc1)NC(=O)c1cnccn1)B(O)O` [BORTEZOMIB], the Ki stood at 630 nM in assay [3], 2300 nM in assay [4], 13000 nM in assay [5] and 320 nM in assay [6]. Turning to `CC(C)C[C@@H](C=O)NC(=O)[C@H](CC(C)C)NC(=O)[C@H](CC(C)C)NC(=O)OCc1ccccc1` [MG-132] (Cbz-Leu-Leu-Leu-aldehyde), the Ki in assay [1] came to 4 nM.
